Key:
in vivo = settings: C. elegans
Protocol: The internal concentration of free BPA was measured by tandem HPLC analysis (Axys, BC, Canada) following an extensive number of physiological buffer washes and lysis of worms cultured on BPA plates (Materials an Methods).

C. elegans germline [1] = settings: in vivo
Text: (§1) Synapsis and recombination are tightly linked events during pachytene throughout various species, as it is only in the context of a fully assembled SC that crossover recombination can be completed. Indeed, in C. elegans, null mutants of SC components such as syp-1, syp-2, syp-3, syp-4 and him-3, increased levels of RAD-51 foci formation and delayed kinetics of foci turnover are observed during pachytene. Consequently, there is activation of the DNA damage checkpoint leading to increased germ cell apoptosis. Recombination is an essential and highly regulated process for the exchange of information that takes place during prophase I [18]. As nuclei exit mitosis and progress through meiosis, programmed meiotic DNA double strand breaks (DSBs) are formed and processed by several DNA repair proteins including RAD-51 [25, 48]. […] As unrepaired recombination intermediates can trigger a DNA-damage checkpoint during pachytene leading to increased germ cell apoptosis, the number of apoptotic nuclei following BPA exposure was measured by Syto-12 staining. […]
Quantification of Germ Cell Apoptosis. Apoptotic germline nuclei were scored in young adults between 20 and 24 hours post-L4 using SYTO-12 (Invitrogen) and were processed as described in [26]. […] Both GFP positive and negative worms (heterozygous and homozygous for cep-1 respectively) were analyzed following BPA exposure. […]

C. elegans germline [2] = experiment: ATL-1 and p-CHK1 immunostaining (DNA damage checkpoint); assay type: in vivo
Text: ATL-1, the C. elegans homologue of mammalian ATM and Rad3-related protein (ATR), accumulates to sites of persistent DSBs during meiosis, and together with CLK-2, acts as a sensor of germ-cell DNA damage which leads to phosphorylation of the checkpoint kinase CHK1 and ultimately apoptosis. To further examine the progression of DSB repair, the levels of ATL-1 and phosphorylated CHK1 (p-CHK1) were monitored throughout the gonad following exposure to BPA.

xol-1::GFP worms = experiment: Lethality, chemical sensitivity of xol-1::GFP strain; assay type: in vivo, C. elegans; settings: 100 μM, 500 μM and 1 mM, four days from eggs to adulthood, 25 worms
Protocol: (§2) The sensitivity of the xol-1::GFP, nx3 strain compared to the xol-1::GFP strain was assayed by exposing 25 worms for four days (from eggs to adulthood) to a range of concentration of Bisphenol A: 100 μM, 500 μM and 1 mM. The nx3 cuticle mutation was expected to confer increased sensitivity to BPA.

xol-1::GFP, nx3 worms = experiment: Lethality, chemical sensitivity of xol-1::GFP, nx3 cuticle mutant strain; assay type: in vivo, C. elegans; settings: four days
Protocol: as §2

C. elegans germline [3] = experiment: Size of mitotic zone of the germline (DAPI, phospho-histone H3 staining); settings: in vivo
Text: In C. elegans, the germline is comprised of two main compartments, a mitotic region (the premeiotic tip), where nuclei are under the influence of the distal tip cell that maintains them in a proliferative state; and the meiotic region, where nuclei progress through the stages of Prophase I before being fertilized. The mitotic compartment of the worm gonad following BPA exposure was examined.
BPA bears endocrine disrupting activity in many developmental contexts including gonadal, brain and mammary gland development. BPA has affinity for multiple members of the estrogen receptors family, in particular BPA binds to the human estrogen receptor alpha (ERα) and ERβ as well as estrogen-related receptor gamma (ERR-γ) and in C. elegans with nuclear hormone receptor NHR-14 which also binds estrogen. […] Two hallmarks of exposure to BPA were examined, the decrease in the size of the proliferative zone and the condensation defects observed at diakinesis, as they are both highly penetrant and consistent phenotypes. […] Similarly to the experiments described above, the size of the mitotic zone was quantified as well as condensation defects at diakinesis.
Growing Conditions and Drug Exposures. Worms were cultured according to [23] at 20° C. on NGM plates without cholesterol. […] Exposure was carried from embryogenesis to adulthood by plating sodium hypochloride treated eggs onto drug and control plates and incubated at 20° C. for four days.
Antibody Staining. DAN staining, immunostaining and analysis of stained meiotic nuclei were performed as in [25] except for ATL-1 and AIR-2 antibodies were dissected gonads were subjected to a 1% fixation method as described in [27]. […] The secondary antibodies used were: Cy3 anti-rabbit, FITC anti-guinea-pig and FITC anti-mouse (Jackson Immunochemicals), each at 1:100, Stacks of 0.2 μm slices were captured using a Leica microscope, coupled to the DeltaVision fluorescence microscope system (Applied Precision). […]

C. elegans germline [4] = settings: in vivo, 4 days, 1 mM
Text: as §1, with “48]. RAD-51 levels vary greatly during progression through prophase I as it is loaded onto DNA during the process of strand invasion and is removed as DSBs repair progresses.” for “48].”
Rad-51 Time Course Analysis. The number of RAD-51 foci and their kinetics throughout the seven zones was assessed as described in [25]. […]

CC(C)(c1ccc(O)cc1)c1ccc(O)cc1 [BPA, Bisphenol A]
concentration at 4 days, 1 mM (in vivo): 2000 ng/g | apoptotic levels in a cep-1 mutant background (C. elegans germline [1]): reduced to normal levels | number of apoptotic nuclei compared to vehicle (C. elegans germline [1]): two to three-fold increase | elevated RAD-51, ATL-1 or p-CHK1 staining in the mitotic germline nuclei (C. elegans germline [2]; BPA exposure): not observed | levels of ATL-1 signal on pachytene nuclei (C. elegans germline [2]; BPA treated vs control): significant increase | levels of p-CHK1 signal on pachytene nuclei (C. elegans germline [2]; BPA treated vs control): significant increase | lethality (xol-1::GFP worms): 0% | lethality (xol-1::GFP, nx3 worms; 100 μM): 0% | lethality (xol-1::GFP, nx3 worms; 500 μM): 96% | lethality (xol-1::GFP, nx3 worms; 1 Mm): 100% | size of the premeiotic tip a day later (C. elegans germline [3]): No significant increase | RAD-51 foci in late pachytene (zones 6 and 7) (C. elegans germline [4]): elevated number of RAD-51 foci

From US20120028837A1, “RAPID SCREEN FOR REPRODUCTIVE TOXICANTS” (PRESIDENT AND FELLOWS OF HARVARD COLLEGE, priority 2010, published 2012)
